According to US6110956A, “N-aryloxyethylamine derivatives for the treatment of depression” (American Home Products Corp., priority 1999, dated 2000):
Like-named read-outs stand apart in the source and are kept apart here.

What was measured:
human 5-HT1A receptor = target: T1, human 5-HT1A receptor (Homo sapiens, UniProt P08908); assay: 5-HT1A receptor binding ([3H]8-OH-DPAT, 5-HT1A.CHO cell membranes); details: for inhibition at 1 µM / inhibition at 0.01 µM: 0.5 h; for inhibition at 1 µM: read-out: 5-HT1A % @1000 nM; for inhibition at 0.01 µM: read-out: 5-HT1A % @10 nM
T1 construct: expressed in transfected cells
T1 sequence (P08908 1-422): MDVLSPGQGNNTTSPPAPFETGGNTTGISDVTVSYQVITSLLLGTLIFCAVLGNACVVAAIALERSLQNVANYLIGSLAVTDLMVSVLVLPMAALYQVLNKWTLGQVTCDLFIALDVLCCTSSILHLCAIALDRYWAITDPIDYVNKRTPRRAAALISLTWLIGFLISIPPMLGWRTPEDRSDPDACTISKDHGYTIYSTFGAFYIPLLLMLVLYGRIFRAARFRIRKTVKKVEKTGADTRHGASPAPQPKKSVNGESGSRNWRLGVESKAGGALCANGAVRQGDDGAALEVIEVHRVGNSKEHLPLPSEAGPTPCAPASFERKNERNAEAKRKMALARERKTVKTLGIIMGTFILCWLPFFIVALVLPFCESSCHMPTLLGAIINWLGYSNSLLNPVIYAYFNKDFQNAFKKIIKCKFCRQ
Description: (§1) The PCR cloning of the human 5-HT1A receptor subtype from a human genomic library has been described previously Chanda et al., Mol. Pharmacol., 43:516 (1993). A stable Chinese hamster ovary cell line expressing the human 5-HT1A receptor subtype (5-HT1A.CHO cells) was employed throughout this study. Cells were maintained in DMEM supplemented with 10% foetal calf serum, non-essential amino acids and penicillin/streptomycin.
Cells were grown to 95-100% confluency as a monolayer before membranes were harvested for binding studies. Cells were gently scraped from the culture plates, transferred to centrifuge tubes, and washed twice by centrifugation (2000 rpm for 10 min., 4° C.) in buffer (50 mM Tris; pH 7.5). The resulting pellets were aliquoted and placed at -80° C. On the day of assay, the cells were thawed on ice, and resuspended in buffer. Studies were conducted using [^3 H]8-OH-DPAT as the radioligand. The binding assay was performed in 96 well microtiter plates in a final total volume of 250 μL of buffer. Competition experiments were performed by using 7 concentrations of unlabelled drug and a final ligand concentration of 1.5 nM . Non-specific binding was determined in the presence of 10 μM 5HT. Saturation analysis was conducted by using [^3 H]8-OH-DPAT at concentrations ranging from 0.3-30 nM. Following a 30 minute incubation at room temperature, the reaction was terminated by the addition of ice cold buffer and rapid filtration using a M-96 Brandel Cell Harvester (Gaithersburg, Md.) through a GF/B filter presoaked for 30 minutes in 0.5% polyethyleneimine.

5-HT1A cloned receptor = target: T2, 5-HT1A cloned receptor (Homo sapiens, UniProt P08908); assay: [35S]-GTPγS binding assay, 5-HT1A cloned receptor membranes; format: biochemical; details: maximum agonist response defined by excess 8-OH-DPAT
T2 construct: expressed in transfected cells
T2 sequence (P08908 1-422): T1 sequence (P08908 1-422)
Source text: as §1
The [^35 S]-GTPγS binding assay was similar to that used by Lazareno and Birdsall, Br. J. Pharmacol. 109:1120 (1993). Briefly, 5-HT1A cloned receptor membrane fragments (as used for 5-HT1A receptor binding assays) were stored at -70° C. until needed. When needed, membranes were rapidly thawed, centrifuged at 40,000×g for 10 minutes and resuspended at 4° C. for 10 minutes in assay buffer ([…], 3 mM MgCl2, 100 mM NaCl, 1 mM EDTA, 10 uM GDP, […], pH 8.0). These membranes were then incubated for 30 min at 30° C. with [^35 S]GTPgS (1 nM) in the presence of vehicle, test compound (one to eight concentrations), or excess 8-OH-DPAT to define maximum agonist response. All reactions are terminated by the addition of ice cold Tris buffer followed by rapid filtration using a Tom Tech® filtration device to separate bound from free [^35 S]GTPgS. […] Bound radioactivity was counted and analyzed as above.

serotonin transporter = target: T3, serotonin transporter (Rattus norvegicus, UniProt P31652); assay: serotonin transporter (ST) affinity, 3H-paroxetine binding in frontal cortical membranes; set-up: species or system male Sprague-Dawley rats
T3 construct: frontal cortical membranes prepared from male Sprague-Dawley rats; from tissue; host or cells: frontal cortical membranes of male Sprague-Dawley rats
Description: Briefly, frontal cortical membranes prepared from male Sprague-Dawley rats were incubated with ^3 H-paroxetine (0.1 nM) for 60 min at 25° C. All tubes also contained either vehicle, test compound (one to eight concentrations), or a saturating concentration of fluoxetine (10 μM) to define […]. All reactions are terminated by the addition of ice cold Tris buffer followed by rapid filtration using a Tom Tech filtration device to separate bound from free ^3 H-paroxetine.

T3 sequence (P31652 whole entry): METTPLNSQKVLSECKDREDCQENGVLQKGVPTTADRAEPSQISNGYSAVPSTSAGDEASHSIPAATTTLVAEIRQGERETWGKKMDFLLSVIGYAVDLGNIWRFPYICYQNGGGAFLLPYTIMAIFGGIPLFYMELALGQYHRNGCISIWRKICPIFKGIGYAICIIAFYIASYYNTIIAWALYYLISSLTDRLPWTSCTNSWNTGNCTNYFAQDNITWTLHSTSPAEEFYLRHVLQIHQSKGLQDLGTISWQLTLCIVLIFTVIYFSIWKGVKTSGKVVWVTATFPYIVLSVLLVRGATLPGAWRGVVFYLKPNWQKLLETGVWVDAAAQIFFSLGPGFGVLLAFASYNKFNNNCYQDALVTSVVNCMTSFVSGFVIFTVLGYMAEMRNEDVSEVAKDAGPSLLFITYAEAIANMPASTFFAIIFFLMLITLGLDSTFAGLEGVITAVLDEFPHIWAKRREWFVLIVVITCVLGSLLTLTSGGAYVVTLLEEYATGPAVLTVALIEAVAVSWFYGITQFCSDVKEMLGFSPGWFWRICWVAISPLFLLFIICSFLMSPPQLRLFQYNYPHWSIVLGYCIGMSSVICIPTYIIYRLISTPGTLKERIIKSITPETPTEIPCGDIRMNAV

Row | SMILES | inhibition at 1 µM (human 5-HT1A receptor) [%] | inhibition at 0.01 µM (human 5-HT1A receptor) [%] | further results
1 | Fc1cc2c(c(OCCN[C@H]3CC[C@@H](c4c[nH]c5ccc(F)cc54)CC3)c1)OCCC2 [Example 5a, [2-(6-Fluoro-chroman-8-yloxy)-ethyl]-[(1,4-cis)-4-(5-fluoro-1H-indol-3-yl)-cyclohexyl]-amine] | 49 |  | 
2 | Cn1cc([C@H]2CC[C@@H](NCCOc3cc(F)cc4c3OCCC4)CC2)c2cc(C#N)ccc21 [Example 5c, 3-{(1,4-cis)-4-[2-(6-Fluoro-chroman-8-yloxy)-ethylamino]-cyclohexyl}-1-methyl-1H-indole-5-carbonitrile] | 47 |  | 
3 | N#Cc1ccc2[nH]cc([C@H]3CC[C@@H](NCCOc4cc(F)cc5c4OCC5)CC3)c2c1 [Example 6a] | 49 |  | 
4 | COc1ccccc1OCCNC[C@H]1CC[C@H](c2c[nH]c3ccc(F)cc32)CC1 [Example 10a, [(1,4-trans)-4-(5-Fluoro-1H-indol-3-yl)-cyclohexylmethyl]-[2-(2-methoxy-phenoxy)-ethyl]-amine] |  |  | Emax (5-HT1A cloned receptor): 60%; Ki (human 5-HT1A receptor): 0.0268 µM; Ki (serotonin transporter): 0.00733 µM
5 | OC1(CNCCOc2cccc3[nH]ccc23)CCC(c2c[nH]c3ccc(F)cc23)CC1 (centres unmarked) [Example 13, (1,4)-4-(5-Fluoro-1H-indol-3-yl)-1-{[2-(1H-indol-4-yloxy)-ethylamino]-methyl}-cyclohexanol] |  |  | Ki (human 5-HT1A receptor; [3H]8-OH-DPAT 1.5 nM, 30 minutes, room temperature, read-out: 5-HT1A (Ki)): 0.257 µM

Continued, in another order:

Row | inhibition at 1 µM (human 5-HT1A receptor) [%] | inhibition at 0.01 µM (human 5-HT1A receptor) [%] | SMILES | further results
6 |  | 16 | COc1cc(F)ccc1OCCN[C@H]1CC[C@@H](c2c[nH]c3ccc(F)cc32)CC1 [Example 9a, [(1,4-cis)-4-(5-Fluoro-1H-indol-3-yl)-cyclohexyl]-[2-(4-fluoro-2-methoxy-phenoxy)-ethyl]-amine] | 
7 |  | 7 | COc1ccccc1OCCNCC1CCC(c2c[nH]c3ccc(C#N)cc23)CC1 (centres unmarked) [Example 10b, 3-(4-{[2-(Methoxy-phenoxy)-ethylamino]-methyl}-cyclohexyl)-1H-indole-5-carbonitrile] | 
8 |  | 0 | COc1cc(F)c(F)cc1OCCN[C@H]1CC[C@@H](c2c[nH]c3ccc(F)cc32)CC1 [Example 11a, (1,4-cis)-[2-(4,5-Difluoro-2-methoxy-phenoxy)-ethyl]-[4-(5-fluoro-1H-indol-3-yl)-cyclohexyl]-amine] | 
9 |  | 0 | COc1cc(S(C)(=O)=O)c(F)cc1OCCN[C@H]1CC[C@H](c2c[nH]c3ccc(F)cc32)CC1 [Example 12, [(1,4-trans)-4-(5-Fluoro-1H-indol-3-yl)-cyclohexyl]-[2-(5-fluoro-4-methanesulfonyl-2-methoxy-phenoxy)-ethyl]-amine] | 
